Data on 16 molecules can be found in patent US20250011311A1, “AMIDO HETEROAROMATIC COMPOUNDS” (AstraZeneca AB, priority 2022, published 2025).

pIC50: −log10 of the molar value.

As usually defined, the pIC50 is −log10 of the IC50, conventionally taken in molar units.

The target of data set [1] is recombinant 17bHSD13 (N2-K300) (Homo sapiens (Human), UniProt Q7Z5P4). Briefly: In Vitro 17bHSD13 Enzyme Assay. The class given is biochemical. The note with it: 80 nM 17bHSD13, 0.5 mM NAD, 20 μM Estradiol, 2.5 h; estradiol to estrone by LC-MS/MS. In a few lines: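 Human 17bHSD13 (N2-K300, 80 nM) with 0.5 mM NAD, 20 μM estradiol and varied compound in 50 mM Tris-Cl pH 7.4, 5 mM EDTA, 0.01% DDM. Estrone/(estrone+estradiol) ratio read by LC-MS/MS (APCI, positive MRM). Inhibition normalised to DMSO and a known-inhibitor control; IC50 from curve fit.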
Chain of recombinant 17bHSD13 (N2-K300) (Q7Z5P4 2-300): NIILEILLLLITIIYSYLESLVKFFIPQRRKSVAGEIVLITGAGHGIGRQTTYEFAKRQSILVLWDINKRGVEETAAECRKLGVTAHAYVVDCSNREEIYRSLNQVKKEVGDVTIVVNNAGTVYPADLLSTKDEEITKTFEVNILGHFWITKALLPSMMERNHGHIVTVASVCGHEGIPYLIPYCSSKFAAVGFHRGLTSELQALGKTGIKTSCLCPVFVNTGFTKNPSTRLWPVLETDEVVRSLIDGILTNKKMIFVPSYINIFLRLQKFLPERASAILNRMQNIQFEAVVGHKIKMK

Data set [2] has as its target recombinant 17bHSD4 (M1-N311) (Homo sapiens (Human), UniProt P51659). Nature of the data set: In Vitro 17bHSD4 Enzyme Assay. The class given is biochemical. To be noted: 40 nM 17bHSD4, 0.125 mM NAD, 15 μM Estradiol, 1.5 h; NADH fluorescence; read-out: 17HSD17b4 Enzyme assay IC50.
The target in data set [3] is over expressed HSD17β13 in HEK293S cells (Homo sapiens (Human), UniProt Q7Z5P4). Nature of the data set: In Vitro 17bHSD13 Cell Assay. The class given is cell-based. The note with it: HEK293S cells over expressing HSD17β13; estradiol to estrone conversion, 18 h, LC-MS/MS; read-out: 17bHSD1713 Cell assay IC50. In outline: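 HEK293S cells overexpressing HSD17β13 convert estradiol to estrone; product read by LC-MS/MS (APCI, positive MRM) as AUC ratio estrone/(estrone+estradiol). Effect normalised between DMSO and maximal inhibition by a known inhibitor control; IC50 from curve fit.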
Chain of over expressed HSD17β13 in HEK293S cells (Q7Z5P4 20-300): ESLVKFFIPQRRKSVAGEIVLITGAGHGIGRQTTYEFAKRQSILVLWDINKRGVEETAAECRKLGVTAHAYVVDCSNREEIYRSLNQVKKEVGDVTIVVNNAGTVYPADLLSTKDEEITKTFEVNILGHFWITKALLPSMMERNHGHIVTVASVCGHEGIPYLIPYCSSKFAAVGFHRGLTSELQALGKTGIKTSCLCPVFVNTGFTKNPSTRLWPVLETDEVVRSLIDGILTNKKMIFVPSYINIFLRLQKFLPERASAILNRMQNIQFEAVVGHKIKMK

For data set [4], the system named is human hepatocytes. Nature of the data set: Assay A: Metabolic Stability in Human Hepatocytes. The class given is in vitro ADME. To be noted: cryopreserved human hepatocytes, 10^6 viable cells/mL, 1 μM compound, 37° C. On the procedure:
Assay A: Metabolic Stability in Human Hepatocytes
Hepatocyte metabolic stability was determined in accordance with the method described by Jacobson et al., An optimized automated assay for determination of metabolic stability using hepatocytes: assay validation, variance component analysis, and in vivo relevance. Assay Drug Dev Technol 2007, 5 (3), 403-415. DOI: 10.1089/adt.2007.059, which is incorporated herein by reference. Cryopreserved hepatocytes at a concentration of 10^6 viable cells/mL were used. After thawing, hepatocytes were incubated for 10 min to warm to 37° C. and test compounds, dissolved in acetonitrile, were added to give a final concentration of 1 μM. At 0.5, 5, 15, 30, 45, 60, 80, 100 and 120 min, the incubation system was mixed and 20 μL aliquots were transferred at each time point to wells in a separate plate filled with 80 μL MeCN to stop the reaction. The quenching plate was then vortexed followed by centrifugation, and supernatants were analyzed by LC-MS/MS. Peak areas were determined from extracted ion chromatograms, and the in vitro intrinsic clearance (in vitro CLint, in μL/min/10^6 cells) of parent compound was calculated from the slope in the regression analysis of the natural logarithm of parent concentration vs time curve.

In data set [5] the target is CYP2C9 (Homo sapiens (Human), UniProt P11712). Briefly: Assay B: Cytochrome P450 Inhibition 2C9.
Chain of CYP2C9 (P11712 whole entry): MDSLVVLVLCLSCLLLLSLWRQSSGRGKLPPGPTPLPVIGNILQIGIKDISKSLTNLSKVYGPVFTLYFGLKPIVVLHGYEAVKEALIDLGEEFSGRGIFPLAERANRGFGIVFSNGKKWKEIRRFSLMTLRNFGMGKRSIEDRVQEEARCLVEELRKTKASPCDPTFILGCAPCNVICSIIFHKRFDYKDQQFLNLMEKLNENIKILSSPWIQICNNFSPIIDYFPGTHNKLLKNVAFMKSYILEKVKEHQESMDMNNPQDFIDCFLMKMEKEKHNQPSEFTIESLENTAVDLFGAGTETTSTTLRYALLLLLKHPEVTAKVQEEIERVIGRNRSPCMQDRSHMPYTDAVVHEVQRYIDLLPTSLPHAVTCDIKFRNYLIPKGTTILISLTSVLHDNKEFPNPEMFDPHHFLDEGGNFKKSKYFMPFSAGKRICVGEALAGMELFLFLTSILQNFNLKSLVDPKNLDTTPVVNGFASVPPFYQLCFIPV
Experimental: A fluorescence-based method in 96-well format was used to determine the inhibition of 2C9 (Crespi, C. L. et al., Microtiter plate assays for inhibition of human, drug-metabolizing cytochromes P450. Anal Biochem 1997, 248 (1), 188-190. DOI: 10.1006/abio.1997.2145, which is incorporated herein by reference). The recombinant human enzymes used were prepared in house, except for CYP2D6 (CYPEX LTD, Dundee, UK). Different coumarin substrates, biotransformed into fluorescent metabolites, were used as probes for each individual CYP. A fluorescence plate reader (SPECTRAMAX GEMINIXS, MOLECULAR DEVICES, Sunnyvale, California, USA) was used to measure the levels of metabolites formed. A dilution series of the test substrates was prepared at eight different concentrations. For each CYP, a mixture of the enzyme, corresponding coumarin substrate, potassium phosphate buffer pH 7.4 and water (concentrations and volumes were CYP-dependent) were added to each well in a black 96-well plate. The test substrates at different concentrations were added. After 10 min pre-incubation, the co-factor NADPH was added to initiate the reaction. After 20-50 min (CYP and substrate-dependent) the reaction was terminated by addition of trisbase/MeCN (20:80). The plates were transferred to the fluorescence plate reader where the wavelengths were set individually for the different coumarin substrates and their respective fluorescent metabolite. The responses were exported to Excel where the IC50 curves were plotted (percent inhibition versus concentration) and IC50 values calculated for each test substrate and enzyme using XL-fit.
Data set [6] deals with over expressed HSD17β9 in HEK293S cells (Homo sapiens (Human), UniProt Q92781). Nature of the data set: In Vitro 17bHSD9 Cell Assay. The note with it: HEK293S cells over expressing HSD17β9; retinol to retinal conversion, 18 h, LC-MS/MS; read-out: 17bHSD9 Cell assay IC50. The class given is cell-based. In a few lines: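 HEK293S cells overexpressing HSD17β9 were plated at 10K cells/well in DMEM + 10% FBS and cultured 18 h. Retinol-to-retinal conversion in media was quantified by LC-MS/MS (MRM) as retinal/(retinal + retinol). IC50 was fitted after normalisation to DMSO and full inhibition by a reference inhibitor.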
Chain of over expressed HSD17β9 in HEK293S cells (Q92781 whole entry): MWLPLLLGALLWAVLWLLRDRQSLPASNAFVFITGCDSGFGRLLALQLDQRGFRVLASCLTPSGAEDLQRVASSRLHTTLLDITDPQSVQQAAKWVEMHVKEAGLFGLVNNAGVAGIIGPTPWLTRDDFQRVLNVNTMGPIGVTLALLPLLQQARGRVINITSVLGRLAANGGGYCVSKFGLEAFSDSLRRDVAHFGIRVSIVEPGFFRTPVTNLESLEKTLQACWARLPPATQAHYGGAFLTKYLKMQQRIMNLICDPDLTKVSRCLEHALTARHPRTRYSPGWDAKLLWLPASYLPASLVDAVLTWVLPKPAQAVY

Chain of recombinant 17bHSD4 (M1-N311) (P51659 1-311): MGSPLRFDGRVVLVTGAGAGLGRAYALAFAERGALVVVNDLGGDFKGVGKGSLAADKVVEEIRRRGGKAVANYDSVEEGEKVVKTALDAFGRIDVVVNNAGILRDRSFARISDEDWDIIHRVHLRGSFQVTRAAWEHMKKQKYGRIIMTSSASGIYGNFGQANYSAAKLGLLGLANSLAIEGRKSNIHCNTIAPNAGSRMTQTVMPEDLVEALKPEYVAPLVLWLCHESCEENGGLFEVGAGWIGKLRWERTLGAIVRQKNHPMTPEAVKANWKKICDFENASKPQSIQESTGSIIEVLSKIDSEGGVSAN

As for `CC(C)(C)N(Cc1ccccn1)C(=O)c1noc(-c2cc(F)c(F)c(O)c2F)c1C#N` [Example 19, N-(tert-Butyl)-4-cyano-N-(pyridin-2-ylmethyl)-5-(2,4,5-trifluoro-3-hydroxyphenyl)isoxazole-3-carboxamide], the negative logarithm of the IC50 (pIC50) in data set [1] was 6.97; in data set [2] it was 4.71; in data set [3] it was 5.70; in data set [5], 6.00. Besides, the “Assay A: Human Heps Met Clint GMean CLint (μl/min/1E6)” value in data set [4] is 4.3 μl/min/1E6.
For `N#Cc1ccc(C2CN(C(=O)c3noc(-c4cc(F)c(F)c(O)c4F)n3)C2)cc1` [Example 59, 4-(1-(5-(2,4,5-Trifluoro-3-hydroxyphenyl)-1,2,4-oxadiazole-3-carbonyl)azetidin-3-yl)benzonitrile], the pIC50 is 6.22 in data set [1], 5.46 in data set [3], below 4.30 in data set [6] and 4.88 in data set [5]. Moreover, the “Assay A: Human Heps Met Clint GMean CLint (μl/min/1E6)” value in data set [4] was found to be 10.2 μl/min/1E6.
In the same order, the values of `N#Cc1ccc2c(c1)CN(C(=O)c1noc(-c3cc(F)c(F)c(O)c3F)n1)C2` [Example 106, 2-(5-(2,4,5-Trifluoro-3-hydroxyphenyl)-1,2,4-oxadiazole-3-carbonyl)isoindoline-5-carbonitrile] are 6.29, 5.91, below 4.30, 5.23 and 16.1 μl/min/1E6.
For `N#Cc1ccc(C2CCN(C(=O)c3noc(-c4cc(F)c(F)c(O)c4F)n3)CC2)cc1` [Example 56, 4-(1-(5-(2,4,5-Trifluoro-3-hydroxyphenyl)-1,2,4-oxadiazole-3-carbonyl)piperidin-4-yl)benzonitrile], the pIC50 was 6.85 in data set [1], 4.63 in data set [2], 5.87 in data set [3] and 5.29 in data set [5]. Besides, the “Assay A: Human Heps Met Clint GMean CLint (μl/min/1E6)” value in data set [4] is 5.9 μl/min/1E6.
Turning to `N#Cc1c(C(=O)N2CC[C@@H](c3ccc(Cl)cc3)C2)noc1-c1cc(F)c(F)c(O)c1F` [Example 21, (S)-3-(3-(4-Chlorophenyl)pyrrolidine-1-carbonyl)-5-(2,4,5-trifluoro-3-hydroxyphenyl)isoxazole-4-carbonitrile], the pIC50 in data set [1] is 7.49; in data set [3], 6.18; in data set [6], 4.65; in data set [5] it was 6.70. The “Assay A: Human Heps Met Clint GMean CLint (μl/min/1E6)” value in data set [4] was 13.3 μl/min/1E6.
In the same order, the values of `Cn1nc(C2CC2)c2c1CCN(C(=O)c1noc(-c3cc(F)c(F)c(O)c3F)c1C#N)C2` [Example 20, 3-(3-Cyclopropyl-1-methyl-4,5,6,7-tetrahydro-1H-pyrazolo[4,3-c]pyridine-5-carbonyl)-5-(2,4,5-trifluoro-3-hydroxyphenyl)isoxazole-4-carbonitrile] are 7.20, 5.62, 4.53, 6.40 and 16.8 μl/min/1E6.
In the case of `N#Cc1ccc(N2CCN(C(=O)c3noc(-c4cc(F)c(F)c(O)c4F)n3)CC2)cc1` [Example 83, 4-(4-(5-(2,4,5-Trifluoro-3-hydroxyphenyl)-1,2,4-oxadiazole-3-carbonyl)piperazin-1-yl)benzonitrile], the pIC50 in data set [1] was 6.99; in data set [2], 4.84; in data set [3], 5.54; in data set [5], 5.21. For the same molecule, the “Assay A: Human Heps Met Clint GMean CLint (μl/min/1E6)” value in data set [4] is reported as 11.8 μl/min/1E6.
In the same order, the values of `O=C(c1noc(-c2cc(F)c(F)c(O)c2F)n1)N1CCN(c2ccccn2)CC1` [Example 58, (4-(Pyridin-2-yl)piperazin-1-yl)(5-(2,4,5-trifluoro-3-hydroxyphenyl)-1,2,4-oxadiazol-3-yl)methanone] are 6.99, 4.69, 5.97, 5.14 and 24.6 μl/min/1E6.
Consider `C[C@@H]1CN(C(=O)c2noc(-c3c(F)c(O)c(F)c(F)c3Br)n2)C[C@H](C)O1` [Example 124, (5-(2-Bromo-3,4,6-trifluoro-5-hydroxyphenyl)-1,2,4-oxadiazol-3-yl)((2R,6S)-2,6-dimethylmorpholino)methanone], for which the pIC50 in data set [1] was 7.38; in data set [6], 4.62; in data set [5], 4.57. Besides, the “Assay A: Human Heps Met Clint GMean CLint (μl/min/1E6)” value in data set [4] turned out to be 11.1 μl/min/1E6.
`O=C(c1noc(-c2cc(F)c(F)c(O)c2F)n1)N1CCC(OCc2ccccc2)C1` (centres unmarked) [Example 97, (3-(Benzyloxy)pyrrolidin-1-yl)(5-(2,4,5-trifluoro-3-hydroxyphenyl)-1,2,4-oxadiazol-3-yl)methanone]: the pIC50 in data set [1] is 6.91; in data set [2], 4.58; in data set [3], 6.05; in data set [5], 5.74. In addition, the “Assay A: Human Heps Met Clint GMean CLint (μl/min/1E6)” value in data set [4] was determined as 46.6 μl/min/1E6.
In the same order, the values of `N#Cc1c(C(=O)N2CCN(c3ccccn3)CC2)noc1-c1cc(F)c(F)c(O)c1F` [Example 15, 3-(4-(Pyridin-2-yl)piperazine-1-carbonyl)-5-(2,4,5-trifluoro-3-hydroxyphenyl)isoxazole-4-carbonitrile] are 6.31, 4.42, 6.01, 5.68 and 59.8 μl/min/1E6.
In the same order, the values of `O=C(c1nnc(-c2ccc(F)c(O)c2)o1)N1CCOC2(CCC2)C1` [Example 90, (5-(4-Fluoro-3-hydroxyphenyl)-1,3,4-oxadiazol-2-yl)(5-oxa-8-azaspiro[3.5]nonan-8-yl)methanone] are 6.20, below 4.30, 5.77, below 4.52 and above 300 μl/min/1E6.
`N#Cc1c(C(=O)N2CC(F)(C3CC3)C2)noc1-c1cc(F)c(F)c(O)c1F` [Example 27, 3-(3-Cyclopropyl-3-fluoroazetidine-1-carbonyl)-5-(2,4,5-trifluoro-3-hydroxyphenyl)isoxazole-4-carbonitrile]: the figures for the pIC50 in data set [1], in data set [3] and in data set [5] were 6.42, 5.39 and 5.51, respectively. In addition, in data set [4], the “Assay A: Human Heps Met Clint GMean CLint (μl/min/1E6)” value is listed as 14.0 μl/min/1E6.
In the same order, the values of `O=C(c1noc(-c2cc(F)c(F)c(O)c2F)n1)N1CCC(Oc2cccnc2)CC1` [Example 70, (4-(Pyridin-3-yloxy)piperidin-1-yl)(5-(2,4,5-trifluoro-3-hydroxyphenyl)-1,2,4-oxadiazol-3-yl)methanone] are 6.62, 5.65, 4.74 and 12.4 μl/min/1E6.
Take `N#Cc1ccccc1N1CCN(C(=O)c2noc(-c3cc(F)c(F)c(O)c3F)n2)CC1` [Example 82, 2-(4-(5-(2,4,5-Trifluoro-3-hydroxyphenyl)-1,2,4-oxadiazole-3-carbonyl)piperazin-1-yl)benzonitrile]: the pIC50 in data set [1] was 7.21; in data set [3] it was 6.35; in data set [6] it was below 4.30; in data set [5] it was 5.37. Besides, in data set [4], the “Assay A: Human Heps Met Clint GMean CLint (μl/min/1E6)” value was found to be 15.4 μl/min/1E6.
As to `O=C(c1noc(-c2cc(F)c(F)c(O)c2F)n1)N1CC(c2ccccc2)C1` [Example 60, (3-Phenylazetidin-1-yl)(5-(2,4,5-trifluoro-3-hydroxyphenyl)-1,2,4-oxadiazol-3-yl)methanone], the pIC50 is 6.86 in data set [1], 4.96 in data set [2], 5.53 in data set [3] and 5.41 in data set [5]. The “Assay A: Human Heps Met Clint GMean CLint (μl/min/1E6)” value in data set [4] stood at 13.8 μl/min/1E6.
